From US4196205A, “3-Acetoxymethyl-7-(iminoacetamido)-cephalosporanic acid derivatives” (priority 1976, dated 1980)
Like-named read-outs stand apart in the source and are kept apart here.

Experiments:
Assay in all cases: MIC, dilution in liquid medium
Type in all cases: cell-based
[1] = system: Bacillus subtilis ATCC 6 633; conditions: Bacillus subtilis
Protocol: (§1) The method used was a dilution of a liquid medium where a series of tubes received the same quantity of a sterile nutritive media and increasing doses of the test compounds were placed therein. Then each tube was seeded with a bacterial strain and was incubated for 24 to 48 hours at 37° C. in an oven. The increasing inhibition was determined by transillumination to determine the minimum inhibiting concentration (MIC in […]) and the results are reported in the following Tables.

[2] = system: Escherichia Coli Exp. TO26 B6; conditions: Escherichia coli
Protocol: as §1

[3] = system: Escherichia Coli Resistant Gentamicine, Tobramycine R 55 123 D; conditions: Escherichia coli
Protocol: as §1

[4] = system: Escherichia Coli Resistant Tetracycline ATCC 11 303 = UC 1261; conditions: Escherichia coli, read-out: M.I.C.
Protocol: as §1

[5] = system: Escherichia Coli Sensible Tetracycline ATCC 9 637 = 1020; conditions: Escherichia coli
Protocol: as §1

[6] = system: Klebsiella pneumoniae 2 536 Resistant Gentamicine; conditions: Klebsiella pneumoniae
Protocol: as §1

[7] = system: Klebsiella pneumoniae Exp. 52 145; conditions: Klebsiella pneumoniae, read-out: M.I.C.
Protocol: as §1

[8] = system: Proteus vulgaris (indol+) A 232; conditions: Proteus vulgaris, 24 h
Protocol: as §1

[9] = system: Providencia Du 48; conditions: Providencia
Protocol: as §1

[10] = system: Pseudomonas 3 935 Exp. SG; conditions: Pseudomonas, 3935EXP.SG
Protocol: as §1

[11] = system: Salmonella typhimurium 420; conditions: Salmonella enterica, TYPHIMURIUM
Protocol: as §1

[12] = system: Serratia Resistant Gentamicine 2 532
Protocol: as §1

[13] = system: Staphylococcus aureus ATCC 5 638 Pen-Sensible = UC 1061
Protocol: as §1

[14] = system: Staphylococcus aureus Co 15 Resistant Cephalexine
Protocol: as §1

[15] = system: Staphylococcus aureus UC 1 128 Pen-Resistant; conditions: Staphylococcus aureus
Protocol: as §1

[16] = system: Staphylococcus aureus exp. n° 54 146; conditions: Staphylococcus aureus
Protocol: as §1

[17] = system: Streptococcus faecalis 5 432
Protocol: as §1

[18] = system: Streptococcus pyogenes A 561; conditions: Streptococcus pyogenes, read-out: M.I.C.
Protocol: as §1

Measured: MIC

C=CCO/N=C(\C(=O)N[C@@H]1C(=O)N2C(C(=O)O)=C(COC(C)=O)CS[C@H]12)c1csc(N)n1 [Example 9, 3-acetoxymethyl-7-[2-(2-amino-4-thiazolyl)-2-(2-propenyl)oxyiminoacetamido]-ceph-3-eme-4-carboxylic acid]
0.4 µg/mL: [12]; 24 h, read-out: M.I.C.
5 µg/mL: [6]; 48 h | [9]; DU48, 48 h, 48 H
0.02 µg/mL: [18]; A561, 24 h, 24 H | [18]; A561, 48 h, 48 H
2 µg/mL: [6]; 24 h | [8] | [13]; 48 h | [15]; UC1, 24 h, 24 H | [15]; UC1, 48 h, 48 H | [16]; 24 h | [16]; 48 h | [17]; Enterococcus faecalis, 5432, 24 h, 24 H
0.1 µg/mL: [4]; 24 h | [4]; 48 h | [7]; EXP.52145, 48 h, 48 H
20 µg/mL: [10]; 24 h | [10]; 48 h | [14]; 48 h
10 µg/mL: [11]; 48 h, read-out: M.I.C. | [14]; 24 h, read-out: M.I.C. | [17]; Enterococcus faecalis, 5432, 48 h, read-out: M.I.C.
0.05 µg/mL: [7]; EXP.52145, 24 h, 24 H
1 µg/mL: [1]; ATCC6, 24 h, 24 H | [1]; ATCC6, 48 h, 48 H | [2]; 24 h | [2]; 48 h | [3]; 24 h | [3]; 48 h | [5]; ATCC9, 24 h, 24 H | [5]; ATCC9, 48 h, 48 H | [11]; 24 h | [12]; 48 h | [13]; 24 h
3 µg/mL: [9]; DU48, 24 h, 24 H
